Laboratory results: ChEMBL document CHEMBL4270599, “Synthesis of a 3'-C-ethynyl-β-d-ribofuranose purine nucleoside library: Discovery of C7-deazapurine analogs as potent antiproliferative nucleosides” (Eur J Med Chem, 2018)

Key:
Format in all cases: functional
[1] = tested on: SK-MEL-5; test: Growth inhibition of human SK-MEL-5 cells assessed as cell growth at 10^-7 M incubated for 48 hrs by sulforhodamine B assay relative to control; settings: SK-MEL-5, 48 h, read-out: Activity
[2] = tested on: K562; test: Growth inhibition of human K562 cells assessed as cell growth at 10^-8 M incubated for 48 hrs by sulforhodamine B assay relative to control; settings: K562, 48 h, read-out: Activity
[3] = tested on: COLO 205; test: Growth inhibition of human COLO205 cells assessed as cell growth at 10^-7 M incubated for 48 hrs by sulforhodamine B assay relative to control; settings: COLO 205, 48 h, read-out: Activity
[4] = tested on: ACHN; test: Cytotoxicity against human ACHN cells after 48 hrs by SRB assay
[5] = tested on: U-251; test: Growth inhibition of human U251 cells assessed as cell growth at 10^-5 M incubated for 48 hrs by sulforhodamine B assay relative to control; settings: U-251, 48 h, read-out: Activity
[6] = tested on: 786-0; test: Cytotoxicity against human 786-0 cells after 48 hrs by SRB assay; settings: 786-0, 48 h; for LC50 (lethal concentration, 50% cell kill): read-out: pLC50 (converted)
[7] = tested on: HCT-116; test: Growth inhibition of human HCT116 cells assessed as cell growth at 10^-4 M incubated for 48 hrs by sulforhodamine B assay relative to control; settings: HCT-116, 48 h, read-out: Activity
[8] = tested on: SK-OV-3; test: Growth inhibition of human SKOV3 cells assessed as cell growth at 10^-7 M incubated for 48 hrs by sulforhodamine B assay relative to control; settings: SK-OV-3, 48 h, read-out: Activity
[9] = tested on: SR; test: Growth inhibition of human SR cells assessed as cell growth at 10^-7 M incubated for 48 hrs by sulforhodamine B assay relative to control; settings: read-out: Activity
[10] = tested on: HCC 2998; test: Growth inhibition of human HCC2998 cells assessed as cell growth at 10^-6 M incubated for 48 hrs by sulforhodamine B assay relative to control; settings: HCC 2998, 48 h, read-out: Activity
[11] = tested on: OVCAR-5; test: Cytotoxicity against human OVCAR5 cells after 48 hrs by SRB assay; settings: OVCAR-5, 48 h
[12] = tested on: OVCAR-3; test: Growth inhibition of human OVCAR3 cells assessed as cell growth at 10^-6 M incubated for 48 hrs by sulforhodamine B assay relative to control; settings: OVCAR-3, 48 h, read-out: Activity
[13] = tested on: MCF7; test: Growth inhibition of human MCF7 cells assessed as cell growth at 10^-4 M incubated for 48 hrs by sulforhodamine B assay relative to control; settings: MCF7, 48 h, read-out: Activity
[14] = tested on: RPMI-8226; test: Growth inhibition of human RPMI8226 cells assessed as cell growth at 10^-7 M incubated for 48 hrs by sulforhodamine B assay relative to control; settings: RPMI-8226, 48 h, read-out: Activity
[15] = tested on: U-251; test: Growth inhibition of human U251 cells assessed as cell growth at 10^-8 M incubated for 48 hrs by sulforhodamine B assay relative to control; settings: U-251, 48 h, read-out: Activity
[16] = tested on: HCT-116; test: Growth inhibition of human HCT116 cells assessed as cell growth at 10^-5 M incubated for 48 hrs by sulforhodamine B assay relative to control; settings: HCT-116, 48 h, read-out: Activity
[17] = tested on: HT-29; test: Growth inhibition of human HT-29 cells assessed as cell growth at 10^-7 M incubated for 48 hrs by sulforhodamine B assay relative to control; settings: HT-29, 48 h, read-out: Activity
[18] = tested on: OVCAR-5; test: Growth inhibition of human OVCAR5 cells assessed as cell growth at 10^-7 M incubated for 48 hrs by sulforhodamine B assay relative to control; settings: OVCAR-5, 48 h, read-out: Activity
[19] = tested on: M14; test: Growth inhibition of human M14 cells assessed as cell growth at 10^-8 M incubated for 48 hrs by sulforhodamine B assay relative to control; settings: M14, 48 h, read-out: Activity
[20] = tested on: HCT-116; test: Cytotoxicity against human HCT116 cells after 48 hrs by SRB assay; settings: HCT-116, 48 h; for CC50: read-out: pLC50 (the source's name) (converted)
[21] = tested on: COLO 205; test: Growth inhibition of human COLO205 cells assessed as cell growth at 10^-5 M incubated for 48 hrs by sulforhodamine B assay relative to control; settings: COLO 205, 48 h, read-out: Activity
[22] = tested on: SF-268; test: Growth inhibition of human SF268 cells assessed as cell growth at 10^-5 M incubated for 48 hrs by sulforhodamine B assay relative to control; settings: SF-268, 48 h, read-out: Activity
[23] = tested on: HT-29; test: Cytotoxicity against human HT-29 cells after 48 hrs by SRB assay; settings: HT-29, 48 h
[24] = tested on: MDA-MB-435; test: Growth inhibition of human MDA-MB-435 cells assessed as cell growth at 10^-8 M incubated for 48 hrs by sulforhodamine B assay relative to control; settings: MDA-MB-435, 48 h, read-out: Activity
[25] = tested on: OVCAR-3; test: Growth inhibition of human OVCAR3 cells assessed as cell growth at 10^-8 M incubated for 48 hrs by sulforhodamine B assay relative to control; settings: OVCAR-3, 48 h, read-out: Activity
[26] = tested on: HCT-116; test: Growth inhibition of human HCT116 cells assessed as cell growth at 10^-8 M incubated for 48 hrs by sulforhodamine B assay relative to control; settings: HCT-116, 48 h, read-out: Activity
[27] = tested on: ACHN; test: Growth inhibition of human ACHN cells assessed as cell growth at 10^-5 M incubated for 48 hrs by sulforhodamine B assay relative to control; settings: read-out: Activity
[28] = tested on: OVCAR-3; test: Cytotoxicity against human OVCAR3 cells after 48 hrs by SRB assay; settings: OVCAR-3, 48 h
[29] = tested on: RXF 393; test: Growth inhibition of human RXF393 cells assessed as cell growth at 10^-8 M incubated for 48 hrs by sulforhodamine B assay relative to control; settings: RXF 393, 48 h, read-out: Activity
[30] = tested on: OVCAR-4; test: Growth inhibition of human OVCAR4 cells assessed as cell growth at 10^-5 M incubated for 48 hrs by sulforhodamine B assay relative to control; settings: OVCAR-4, 48 h, read-out: Activity
[31] = tested on: A549; test: Growth inhibition of human A549/ATCC cells assessed as cell growth at 10^-6 M incubated for 48 hrs by sulforhodamine B assay relative to control; settings: A549, 48 h, read-out: Activity
[32] = tested on: HCT-15; test: Growth inhibition of human HCT15 cells assessed as cell growth at 10^-5 M incubated for 48 hrs by sulforhodamine B assay relative to control; settings: HCT-15, 48 h, read-out: Activity
[33] = tested on: SNB-75; test: Growth inhibition of human SNB75 cells assessed as cell growth at 10^-8 M incubated for 48 hrs by sulforhodamine B assay relative to control; settings: SNB-75, 48 h, read-out: Activity
[34] = read-out: pLC50 (the source's name) (converted)
[35] = read-out: LC50 (the source's name)

C#C[C@@]1(O)[C@@H](CO)O[C@@H](n2cc(I)c3c(N)ncnc32)[C@@H]1O
growth at 0.1 µM [1]: 62 to 65% | growth at 0.01 µM [2]: 95 to 102% | growth at 0.1 µM [3]: 35 to 63% | GI50 [4]: 0.316 µM | TGI ([4]; read-out: TGI): > 100 µM | CC50 [4, 34]: > 100 µM | TGI ([4]; read-out: pTGI (converted)): > 100 µM | growth at 10 µM [5]: 4% | GI50 ([6]; read-out: GI50): 0.236 to 0.334 µM | TGI ([6]; read-out: TGI): 3.24 µM | LC50 (lethal concentration, 50% cell kill) [6]: > 100 µM | TGI ([6]; read-out: pTGI (converted)): 3.24 µM | growth at 100 µM [7]: 4% | growth at 0.1 µM [8]: 26 to 40% | growth at 0.1 µM [9]: 60 to 86% | growth at 1 µM [10]: 11 to 16% | GI50 ([11]; read-out: GI50): 0.515 to 1.69 µM | CC50 [11, 35]: > 100 µM | TGI ([11]; read-out: TGI): > 100 µM | TGI ([11]; read-out: pTGI (converted)): > 100 µM | growth at 1 µM [12]: 24 to 33% | growth at 100 µM [13]: 1 to 3% | growth at 0.1 µM [14]: 71 to 90% | growth at 0.01 µM [15]: 94 to 99% | growth at 10 µM [16]: 3% | growth at 0.1 µM [17]: 14 to 34% | growth at 0.1 µM [18]: 67 to 75% | growth at 0.01 µM [19]: 85 to 94% | GI50 ([20]; read-out: GI50): 0.0344 to 0.0547 µM | TGI ([20]; read-out: TGI): > 100 µM | CC50 [20]: > 100 µM | TGI ([20]; read-out: pTGI (converted)): > 100 µM | growth at 10 µM [21]: -62% | growth at 10 µM [22]: 7% | GI50 ([23]; read-out: GI50): 0.0142 to 0.0397 µM | TGI ([23]; read-out: TGI): 3.3 to 6.84 µM | CC50 [23, 34]: > 100 µM | growth at 0.01 µM [24]: 83 to 93% | growth at 0.01 µM [25]: 91 to 98% | growth at 0.01 µM [26]: 83 to 95% | growth at 10 µM [27]: 5% | GI50 ([28]; read-out: GI50): 0.321 to 0.427 µM | CC50 [28, 35]: > 100 µM | growth at 0.01 µM [29]: 94 to 102% | growth at 10 µM [30]: 9 to 13% | growth at 1 µM [31]: 29 to 41% | growth at 10 µM [32]: 2 to 3% | growth at 0.01 µM [33]: 74 to 83%

C#C[C@@]1(O)[C@@H](CO)O[C@@H](n2ccc3c(N)ncnc32)[C@@H]1O
growth at 0.1 µM [1]: 101% | growth at 0.01 µM [2]: 103% | growth at 0.1 µM [3]: 97% | GI50 [4]: 0.562 µM | CC50 [4, 35]: > 100 µM | TGI ([4]; read-out: TGI): 4.48 µM | TGI ([4]; read-out: pTGI (converted)): 4.47 µM | growth at 10 µM [5]: 2% | TGI ([6]; read-out: TGI): 6.15 µM | GI50 ([6]; read-out: pGI50 (converted)): 1.62 µM | LC50 (lethal concentration, 50% cell kill) [6]: 25.7 µM | TGI ([6]; read-out: pTGI (converted)): 6.17 µM | growth at 100 µM [7]: -54% | growth at 0.1 µM [8]: 92% | growth at 0.1 µM [9]: 96% | growth at 1 µM [10]: 74% | TGI ([11]; read-out: TGI): 8.54 µM | GI50 ([11]; read-out: pGI50 (converted)): 3.09 µM | CC50 [11, 34]: > 100 µM | TGI ([11]; read-out: pTGI (converted)): 8.51 µM | growth at 1 µM [12]: 92% | growth at 100 µM [13]: -53% | growth at 0.1 µM [14]: 98% | growth at 0.01 µM [15]: 102% | growth at 10 µM [16]: 2% | growth at 0.1 µM [17]: 95% | growth at 0.1 µM [18]: 106% | growth at 0.01 µM [19]: 93% | TGI ([20]; read-out: TGI): 10.8 µM | GI50 ([20]; read-out: pGI50 (converted)): 0.589 µM | CC50 [20]: 85.1 µM | TGI ([20]; read-out: pTGI (converted)): 10.7 µM | growth at 10 µM [21]: -54% | growth at 10 µM [22]: 5% | CC50 [23, 35]: > 100 µM | TGI ([23]; read-out: TGI): 10 µM | GI50 ([23]; read-out: pGI50 (converted)): 0.977 µM | TGI ([23]; read-out: pTGI (converted)): 10 µM | growth at 0.01 µM [24]: 92% | growth at 0.01 µM [25]: 105% | growth at 0.01 µM [26]: 91% | growth at 10 µM [27]: -18% | TGI ([28]; read-out: TGI): 12 µM | GI50 ([28]; read-out: pGI50 (converted)): 2.95 µM | CC50 [28, 34]: > 100 µM | TGI ([28]; read-out: pTGI (converted)): 12 µM | growth at 0.01 µM [29]: 99% | growth at 10 µM [30]: -9% | growth at 1 µM [31]: 56% | growth at 10 µM [32]: -24% | growth at 0.01 µM [33]: 86%
